Source: patent US20220387457A1 (Qlaris Bio, Inc., priority 2020, published 2022)

Columns and labels:
[1] = target: T1, human Kir6.2/SUR2B KATP channel (Homo sapiens, UniProt O60706); experiment: FLIPR membrane potential assay in HEK-Kir6.2/SUR2B cells; assay type: cell-based; details: glibenclamide 10 μM
T1 construct: expressed in transfected cells
Procedure: The ability of CKLP1 and the active moiety of CKLP1, leveromakalim, to pharmacologically modulate the function of the human ATP-sensitive potassium channel comprised of Kir6.2 (encoded by the human gene KCNJ11) coupled to the sulfonylurea receptor SUR2B (encoded by the human gene ABCC9) was studied.
Compounds were dissolved up to 10 mM stock solution in DMSO. Ten-point concentration response curves were generated at 100× concentration in 100% DMSO. Compound source plates were made by serially diluting 10 mM compound stocks in DMSO to generate a progressive semilog dilution schema. Dose response stock plate (10 μL) were then transferred into assay plates containing 90 μL of assay buffer, generating 10× working concentrations. Final assay test concentration ranges of 100 μM to 0.003 μM with a final DMSO concentration of 1.0%.
Human embryonic kidney (HEK) cells stably expressing human Kir6.2/SUR2B KATP channel subunits were plated onto 96 well, black poly-d-lysine (PDL)-coated microplates and maintained in growth media the day prior to use for experiments. Media was removed from the plates and 90 μL of 1× stock of the membrane potential sensitive fluorescent dye FMP-Blue resuspended in assay buffer (EBSS—in mM: NaCl 145, KCl 2, Glucose 5, CaCl2) 1.8, MgCl2 0.8, HEPES 10, pH 7.4 with NaOH, 290-300 mOSm) was added to the cells. Cells were incubated at room temperature, protected from light, for 45-60 minutes. After the incubation period, cell, test compound and glibenclamide plates were loaded onto the fluorescence plate reader (FLIPR-TETRA™) and the scanning initiated. The FLIPR measured a 10 second baseline and then added 10 μL of 10× the final desired concentration of test agent. Changes in fluorescence were monitored for an additional 5 minutes. After the 5-minute compound incubation, 10 μL of the receptor inhibitor glibenclamide was added to the cell plate (10 uM final glibenclamide concentration). Changes in fluorescence was then monitored for an additional 5 minutes.
Compound modulation of Kir6.2/SUR2B KATP channel mediated changes in cellular membrane potential was determined as follows. After the administration of compound, FMP fluorescence was monitored for a 5-minute period. The following parameters were recorded and exported from the FLIPR: the average relative fluorescence response (RFU) of 5 images taken at the 5-minute point in the assay with the average background EBSS buffer response subtracted. […] Test agent effect was calculated as % activation using the following formula: […]
Curve fits were performed in GraphPad Prism graphing software using a 4-parameter, variable slope fit equation.

single KATP channels = details: in the presence of ATP; Brayden et al. 1991; cited from earlier work
[2] = cited from earlier work
[3] = tested on: α-SMA, CD31, endothelin-I, fibronectin, VE-cadherin, phospho-eNOS and total eNOS; experiment: Protein expression (western blot, immunocytochemistry) in 3D HTM/SC constructs; assay type: cell-based, human; details: levcromakalim 1, 10 or 100 μM, Y-27632 10 μM
Procedure: Bioengineered 3D conventional outflow tract constructs using 4 donors (ages 47-91) were treated with […] (5 ng/mL) for 6 days. […] Protein expression of α-smooth muscle actin (α-SMA), CD31, endothelin-I, fibronectin, VE-cadherin, phospho-eNOS and total eNOS was analyzed via western blot. Cellular expression of α-SMA, fibronectin, phospho-eNOS and total eNOS was determined by immunocytochemistry and confocal microscopy. Statistical significance was determined by one-way ANOVA with a Tukey's multiple comparisons test, or by two-way ANOVA.

T1 sequence (O60706 1-1549 isoform O60706-2): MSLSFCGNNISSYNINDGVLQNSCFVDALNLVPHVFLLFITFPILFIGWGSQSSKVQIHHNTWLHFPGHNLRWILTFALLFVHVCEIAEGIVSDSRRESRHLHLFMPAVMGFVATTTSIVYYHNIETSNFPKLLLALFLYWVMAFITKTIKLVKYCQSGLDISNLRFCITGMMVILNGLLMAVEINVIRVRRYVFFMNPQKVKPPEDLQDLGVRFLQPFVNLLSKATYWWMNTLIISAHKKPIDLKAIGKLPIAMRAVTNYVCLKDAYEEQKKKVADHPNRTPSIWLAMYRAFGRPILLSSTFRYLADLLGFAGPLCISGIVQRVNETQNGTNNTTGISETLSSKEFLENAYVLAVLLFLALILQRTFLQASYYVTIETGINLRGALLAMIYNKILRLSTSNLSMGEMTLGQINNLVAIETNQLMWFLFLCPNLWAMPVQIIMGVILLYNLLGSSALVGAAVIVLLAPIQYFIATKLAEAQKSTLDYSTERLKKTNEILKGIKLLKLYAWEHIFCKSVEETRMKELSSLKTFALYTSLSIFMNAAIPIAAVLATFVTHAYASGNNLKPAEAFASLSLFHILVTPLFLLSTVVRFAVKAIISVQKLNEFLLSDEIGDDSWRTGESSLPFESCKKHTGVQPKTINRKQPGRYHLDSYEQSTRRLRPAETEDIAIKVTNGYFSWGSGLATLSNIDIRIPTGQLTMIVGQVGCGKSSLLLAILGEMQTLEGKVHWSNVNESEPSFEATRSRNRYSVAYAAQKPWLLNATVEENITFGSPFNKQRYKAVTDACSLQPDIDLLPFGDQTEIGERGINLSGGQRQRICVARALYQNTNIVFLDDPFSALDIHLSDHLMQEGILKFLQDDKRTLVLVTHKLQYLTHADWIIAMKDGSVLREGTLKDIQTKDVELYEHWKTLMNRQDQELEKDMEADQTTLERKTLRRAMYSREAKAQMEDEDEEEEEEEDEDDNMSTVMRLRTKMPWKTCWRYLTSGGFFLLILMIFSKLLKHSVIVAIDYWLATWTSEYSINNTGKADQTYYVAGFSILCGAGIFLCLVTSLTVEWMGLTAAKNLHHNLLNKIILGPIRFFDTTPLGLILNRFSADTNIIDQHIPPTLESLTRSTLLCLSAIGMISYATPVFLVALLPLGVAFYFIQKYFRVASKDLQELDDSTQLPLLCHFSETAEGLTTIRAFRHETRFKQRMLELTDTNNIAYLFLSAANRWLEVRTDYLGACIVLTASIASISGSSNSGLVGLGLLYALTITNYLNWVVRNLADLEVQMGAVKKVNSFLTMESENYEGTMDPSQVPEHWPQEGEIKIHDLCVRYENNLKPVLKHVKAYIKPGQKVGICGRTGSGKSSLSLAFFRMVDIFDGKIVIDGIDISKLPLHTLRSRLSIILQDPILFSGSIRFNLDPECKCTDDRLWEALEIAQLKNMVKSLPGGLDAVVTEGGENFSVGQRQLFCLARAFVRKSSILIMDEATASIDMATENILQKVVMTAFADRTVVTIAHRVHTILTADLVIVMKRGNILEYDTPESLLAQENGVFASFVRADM
T1 sequence (Q14654 whole entry partner): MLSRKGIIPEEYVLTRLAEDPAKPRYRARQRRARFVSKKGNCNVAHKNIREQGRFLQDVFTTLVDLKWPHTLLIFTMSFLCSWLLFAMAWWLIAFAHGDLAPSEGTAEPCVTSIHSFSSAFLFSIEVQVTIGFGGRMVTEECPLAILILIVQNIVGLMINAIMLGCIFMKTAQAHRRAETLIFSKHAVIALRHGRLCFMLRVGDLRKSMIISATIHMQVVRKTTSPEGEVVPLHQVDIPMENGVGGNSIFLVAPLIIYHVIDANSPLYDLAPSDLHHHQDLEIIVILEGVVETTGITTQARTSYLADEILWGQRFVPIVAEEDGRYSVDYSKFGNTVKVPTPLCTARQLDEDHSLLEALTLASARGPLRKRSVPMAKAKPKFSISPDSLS

SMILES | hyperpolarization reversed by coadministration of glibenclamide [1] | increase of open-state probability (Popen) of single KATP channels (single KATP channels) | solubility in water [2] | expression of the cell adhesion proteins CD31 and VE-Cadherin [3] | expression of the cell adhesion proteins CD31 and VE-Cadherin ([3]; listed as Y27632)
CC1(C)Oc2ccc(C#N)cc2C(N2CCCC2=O)C1O (stereo not drawn) [Cromakalim, cromakalim] | reversed | more than 9 fold | substantially insoluble in water |  | 
CC(N/C(=N\C#N)Nc1ccncc1)C(C)(C)C (stereo not drawn) [Pinacidil, pinacidil, reference compound] | reversed |  |  |  | 
C[C@@H](N)[C@H]1CC[C@H](C(=O)Nc2ccncc2)CC1 [Y-27632] |  |  |  | significantly decreased | decreased expression
